# Test results from patent publication US8314215B2, “Mild chemically cleavable linker system” (The Board of Trustees of the Leland Stanford Junior …, priority 2006, dated 2012).
# What was measured:
# [1] = test system: 3-hydrozy-3-methylglutaryl-coenzyme A-synthase; assay: LC/MS/MS identification of proteins from mouse liver extracts labeled with MTS-I-49; type: biochemical
# Source text: (§1) (1991) Irreversible inhibition of serine proteases by peptide derivatives of (alpha-aminoalkyl)phosphonate diphenyl esters. Biochemistry 30, 485-493). However, it has not been used for any proteomic applications. We used MTS-I-49 to label mouse liver extracts and analyze the labeled sample by both SDS-PAGE (FIG. 5B) and by direct chemical cleavage or on bead digestion.
# (§2) After enrichment on immobilized avidin, each of the three labeled proteomes (FIG. 5b) was divided into two aliquots. One was prepared for LC-MS/MS analysis by “on bead” digestion, while the other was chemically eluted and digested “in solution.” Proteins identified in each tissue lysate are listed with their accession number and theoretical molecular weight (MW). To compare both approaches, the number of identified peptides and percentage of amino acid sequence coverage is listed for each protein.
# (§3) Proteins in the above Table were identified by LC/MS/MS analysis of on bead digested or chemically eluted proteins from mouse liver extracts labeled with MTS-I-49. […] BLAST database searching identified it as liver carboxylesterase 4. A number of additional endogenously biotinylated proteins were identified in the on-bead digested sample.
# Liver carboxylesterase 4 = biological target: T1, Liver carboxylesterase 4 (Mus musculus, UniProt Q91WU0); assay: as above; type: biochemical
# T1 construct: from tissue; host or cells: mouse liver extract
# T1 sequence (Q91WU0 18-561): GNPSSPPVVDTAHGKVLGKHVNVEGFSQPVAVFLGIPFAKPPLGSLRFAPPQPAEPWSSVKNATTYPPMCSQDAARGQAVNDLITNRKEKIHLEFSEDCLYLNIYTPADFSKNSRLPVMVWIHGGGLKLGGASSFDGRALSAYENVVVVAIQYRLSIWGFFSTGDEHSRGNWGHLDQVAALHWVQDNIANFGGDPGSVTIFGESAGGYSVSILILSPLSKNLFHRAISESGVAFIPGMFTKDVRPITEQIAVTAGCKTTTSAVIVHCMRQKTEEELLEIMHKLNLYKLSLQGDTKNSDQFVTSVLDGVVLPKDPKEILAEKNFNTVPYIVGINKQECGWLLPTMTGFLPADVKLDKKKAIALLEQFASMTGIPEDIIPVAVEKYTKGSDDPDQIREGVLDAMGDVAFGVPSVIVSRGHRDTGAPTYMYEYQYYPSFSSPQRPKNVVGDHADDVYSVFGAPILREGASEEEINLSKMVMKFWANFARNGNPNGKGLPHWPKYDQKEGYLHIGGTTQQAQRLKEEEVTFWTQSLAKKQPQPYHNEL
# Source text: as §1, §2, §3
# [2] = test system: acetyl-Coenzyme A dehydrogenase; assay: as above; type: biochemical
# Source text: as §1, §2, §3
# alcohol dehydrogenase 1 = biological target: T2, alcohol dehydrogenase 1 (Mus musculus, UniProt P00329); assay: as above; type: biochemical
# T2 construct: from tissue; host or cells: mouse liver extract
# T2 sequence (P00329 whole entry): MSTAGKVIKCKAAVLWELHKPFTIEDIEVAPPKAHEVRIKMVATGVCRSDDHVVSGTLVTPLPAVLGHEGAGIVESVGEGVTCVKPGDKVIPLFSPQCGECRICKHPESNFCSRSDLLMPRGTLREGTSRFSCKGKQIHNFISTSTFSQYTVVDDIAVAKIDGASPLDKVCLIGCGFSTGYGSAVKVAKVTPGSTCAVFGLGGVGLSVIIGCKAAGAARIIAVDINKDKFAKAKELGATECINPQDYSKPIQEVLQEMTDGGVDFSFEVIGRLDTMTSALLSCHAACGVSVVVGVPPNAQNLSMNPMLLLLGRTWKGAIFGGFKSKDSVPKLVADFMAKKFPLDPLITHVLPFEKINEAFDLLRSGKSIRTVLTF
# Source text: as §1, §2, §3
# [3] = test system: glutathione-S-transferase; assay: as above; type: biochemical
# Source text: as §1, §2, §3
# [4] = biological target: T3, glycine N-methyltransferase (Mus musculus, UniProt Q9QXF8); assay: as above; type: biochemical
# T3 construct: from tissue; host or cells: mouse liver extract
# T3 sequence (Q9QXF8 1-293): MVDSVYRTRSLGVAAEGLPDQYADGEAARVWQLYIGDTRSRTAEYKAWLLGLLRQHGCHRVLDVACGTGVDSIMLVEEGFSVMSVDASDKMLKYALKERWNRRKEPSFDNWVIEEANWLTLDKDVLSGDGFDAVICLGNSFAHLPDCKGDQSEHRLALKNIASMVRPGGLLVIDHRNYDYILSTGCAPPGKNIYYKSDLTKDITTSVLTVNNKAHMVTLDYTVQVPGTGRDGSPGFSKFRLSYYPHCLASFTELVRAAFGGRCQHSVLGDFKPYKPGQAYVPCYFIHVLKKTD
# Source text: as §1, §2, §3
# hemoglobin alpha 1 = biological target: T4, hemoglobin alpha 1 (Mus musculus, UniProt P01942); assay: as above; type: biochemical
# T4 construct: from tissue; host or cells: mouse liver extract
# T4 sequence (P01942 2-142 limits assumed): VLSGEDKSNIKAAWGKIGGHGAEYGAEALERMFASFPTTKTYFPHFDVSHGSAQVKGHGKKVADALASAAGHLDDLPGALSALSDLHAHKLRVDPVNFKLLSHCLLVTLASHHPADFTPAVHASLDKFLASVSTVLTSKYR
# T4 sequence (P02088 2-147 partner limits assumed): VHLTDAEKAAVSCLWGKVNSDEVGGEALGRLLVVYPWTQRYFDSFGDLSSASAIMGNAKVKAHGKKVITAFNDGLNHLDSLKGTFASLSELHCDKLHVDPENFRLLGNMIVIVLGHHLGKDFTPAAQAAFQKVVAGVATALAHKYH
# Source text: as §1, §2, §3
# [5] = biological target: T5, peroxisomal acyl-CoA oxidase (Mus musculus, UniProt Q9R0H0); assay: as above; type: biochemical
# T5 construct: from tissue; host or cells: mouse liver extract
# T5 sequence (Q9R0H0 1-661): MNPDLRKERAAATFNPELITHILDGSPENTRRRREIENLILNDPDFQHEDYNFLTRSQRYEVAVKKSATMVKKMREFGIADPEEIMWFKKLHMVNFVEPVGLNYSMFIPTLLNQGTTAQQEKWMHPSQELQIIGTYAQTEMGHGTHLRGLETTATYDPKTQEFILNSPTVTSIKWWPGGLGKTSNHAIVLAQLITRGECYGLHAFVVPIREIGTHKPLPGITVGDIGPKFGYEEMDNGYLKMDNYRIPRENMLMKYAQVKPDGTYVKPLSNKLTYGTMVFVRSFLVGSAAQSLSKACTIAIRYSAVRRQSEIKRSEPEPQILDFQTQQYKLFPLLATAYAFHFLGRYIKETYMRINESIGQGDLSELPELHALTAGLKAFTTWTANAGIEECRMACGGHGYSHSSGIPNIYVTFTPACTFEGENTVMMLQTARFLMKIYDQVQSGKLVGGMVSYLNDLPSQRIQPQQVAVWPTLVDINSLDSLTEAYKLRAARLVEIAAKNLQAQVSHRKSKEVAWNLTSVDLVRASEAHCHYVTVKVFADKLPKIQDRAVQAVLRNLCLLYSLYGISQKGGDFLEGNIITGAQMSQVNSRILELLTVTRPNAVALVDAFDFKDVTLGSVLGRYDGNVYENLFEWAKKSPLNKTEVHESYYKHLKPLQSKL
# Source text: as §1, §2, §3
# [6] = Background peptides, chemical elution versus on-bead digestion; design: species or system mouse; conditions: chemical elution compared with on-bead digestion
# Method: as §2
# Carboxylesterase 4 has not been characterized on a functional level and has never been confirmed to be catalytically active (Rawlings, N. D., Morton, F. R., and Barrett, A. J. (2006) MEROPS: the peptidase database. Nucleic Acids Res 34, D270-272.). […] Overall the level of background peptides was decreased by over 90%, when chemical elution was used for the sample preparation (as shown in the above Table). Although the number of carboxylesterase peptides identified was reduced compared to the on-bead sample we could still make a confident identification with nearly 40% coverage of peptide sequence.
# [7] = chemically eluted, digested in solution
# [8] = Liver carboxylesterase 4, chemically eluted, digested in solution
# [9] = Liver carboxylesterase 4, on bead digestion
structure (smiles),measurement,setting,value
C[C@H](NC(=O)c1ccc(N=Nc2cc(CCNC(=O)CCCC[C@@H]3SC[C@@H]4NC(=O)N[C@@H]43)ccc2O)cc1)C(=O)N[C@@H](C)C(=O)NC(Cc1ccccc1)P(=O)(Oc1ccccc1)Oc1ccccc1 (stereo partly shown) [MTS-I-49],"Chemical Cleavage, number of identified peptides",[1]; [7],0
same,"On Bead Digestion, amino acid sequence coverage",[1]; on bead digestion,6%
same,"On Bead Digestion, number of identified peptides",[1]; on bead digestion,2
same,"Chemical Cleavage, amino acid sequence coverage",Liver carboxylesterase 4; [8],38%
same,"Chemical Cleavage, number of identified peptides",Liver carboxylesterase 4; [8],14
same,"On Bead Digestion, amino acid sequence coverage",Liver carboxylesterase 4; [9],51%
same,"On Bead Digestion, number of identified peptides",Liver carboxylesterase 4; [9],20
same,target identification after chemical cleavage,"Liver carboxylesterase 4; mouse liver extracts, hypothetical protein identified by BLAST as liver carboxylesterase 4",primary probe target
same,"Chemical Cleavage, number of identified peptides",[2]; [7],0
same,"On Bead Digestion, amino acid sequence coverage",[2]; on bead digestion,34%
same,"On Bead Digestion, number of identified peptides",[2]; on bead digestion,3
same,"Chemical Cleavage, number of identified peptides",alcohol dehydrogenase 1; [7],0
same,"On Bead Digestion, amino acid sequence coverage",alcohol dehydrogenase 1; on bead digestion,20%
same,"On Bead Digestion, number of identified peptides",alcohol dehydrogenase 1; on bead digestion,3
same,"Chemical Cleavage, amino acid sequence coverage",[3]; [7],12%
same,"Chemical Cleavage, number of identified peptides",[3]; [7],2
same,"On Bead Digestion, amino acid sequence coverage",[3]; on bead digestion,44%
same,"On Bead Digestion, number of identified peptides",[3]; on bead digestion,8
same,"Chemical Cleavage, number of identified peptides",[4]; [7],0
same,"On Bead Digestion, amino acid sequence coverage",[4]; on bead digestion,10%
same,"On Bead Digestion, number of identified peptides",[4]; on bead digestion,2
same,"Chemical Cleavage, number of identified peptides",hemoglobin alpha 1; [7],0
same,"On Bead Digestion, amino acid sequence coverage",hemoglobin alpha 1; on bead digestion,25%
same,"On Bead Digestion, number of identified peptides",hemoglobin alpha 1; on bead digestion,3
same,"Chemical Cleavage, number of identified peptides",[5]; [7],0
same,"On Bead Digestion, amino acid sequence coverage",[5]; on bead digestion,4%
same,"On Bead Digestion, number of identified peptides",[5]; on bead digestion,2
same,decrease of the level of background peptides,[6],over 90%
